In patent publication US10293021B2, “Conjugates and prodrugs for treating cancer and inflammatory diseases” (CENTRE NATIONAL DE LA RECHERCHE SCIENTIFIQUE, priority 2014, dated 2019):
Where a SMILES comes first, the peptide text is derived from it. [ ]: non-standard residue; d: D form. The star is where a group is joined. Dolaproine = CO[C@@H]([C@@H]1CCCN1)[C@@H](C)C(=O)O; Dil = CC[C@H](C)[C@H](NC)[C@@H](CC(=O)O)OC; X1 = C[C@@H](N*)[C@@H](O)c1ccccc1; NMeV = CN[C@H](C(=O)O)C(C)C

Key:
[1] = system: orthotopically grafted human breast tumor of MDA-MB-231 type (MDA-MB-231-Luc cells); assay: Therapeutic efficacy in vivo on a murine model of human breast cancer; design: species or system Balb/c Nude mice
Method: The therapeutic efficacy of the conjugate of formula (III), as synthesized according to the reaction protocol described in example 1, was evaluated on 6-week-old female Balb/c Nude mice (Charles River France Laboratories—L'Arbresle) as indicated in example 3.
The MDA-MB-231 cells originate from a mammary adenocarcinoma from a person. The MDA-MB-231 mammary cancer cell line was supplied by Caliper LifeSciences (Roissy, France). These cells were chosen because they make it possible to generate tumors of hypoxic nature, reflecting the clinical pathological situation.
These cells are modified to express the luciferase gene. The cells were cultured in […] flasks and maintained in a humidified incubator at 37° C. under an atmosphere consisting of air, with Eagle's Minimal Essential Medium (EMEM) supplemented with 10% of fetal calf serum, 1% of L-glutamine, 1% of sodium pyruvate, 1% of non-essential amino acids, 2% of sodium bicarbonate and 1% of penicillin and streptomycin.
For the implantations, the abdomens of the mice were disinfected with an iodinated povidone solution (Betadine®, ASTA Medica, Belgium). The needle was inserted into the subcutaneous space, at the level of the lower left teat. 2×10^6 MDA-MB-231-Luc cells in 100 μl of PBS was slowly injected using a 27-caliber needle. The needle was then slowly withdrawn. For this, the mice will be anesthetized by inhalation of isoflurane (2% in air).
The mice (6 animals per group) received a treatment 15 days after the tumor implantations. The intravenous injections were carried out once a week for 5 weeks with doses of 4 mg/kg of conjugate of formula (III) (D15, D22, D29, D36 and D43). The control groups were treated either with MMAE alone with a dose of 0.3 mg/kg, or with the excipient consisting of a mixture of DMSO and PBS (5%/95%).
The evolution of the tumor volume was monitored by 3D echography. The measurements were carried out as described in example 2, on days 7, 11, 15, 19, 22, 25, 27, 29, 32, 34, 36, 39, 43 and 50.

[2] = system: orthotopically grafted human pancreatic tumor of Mia Paca type (Mia PaCa 2-Luc cells); assay: Therapeutic efficacy in vivo on a murine model of human pancreatic cancer (two weekly injections, D7 and D14); design: species or system Swiss Nude mice; conditions: 2 injections (D7 and D14), echography over 70 days, FIG. 2
Method: The therapeutic efficacy of the conjugate of formula (III), as synthesized according to the reaction protocol described in example 1, was evaluated on 6-week-old female Swiss Nude mice (Charles River France Laboratories, l'Arbresle). The animals were acclimatized for 7 days in the laboratory before the experiment. The mice were housed in plastic cages equipped with filtering lids (HEPA filter), in a ventilated cage rack, housed at a temperature of 20±2° C. with a light/dark cycle of 12/12 hours, with free access to water and food ad libitum.
The Mia Paca 2 cells originate from a pancreatic adenocarcinoma from a person. The Mia Paca 2 pancreatic cancer cell line was supplied by the American Type Culture Collection (Rockville, Md.). These cells were chosen since they make it possible to generate tumors of hypoxic nature, reflecting the clinical pathological situation.
These cells were modified to express the luciferase gene (Mia PaCa 2-Luc). The cells were cultured in […] flasks and maintained in a humidified incubator at 37° C. in 5% CO2 with Dulbecco's Modified Eagle Medium (DMEM) supplemented with 10% of fetal calf serum, 2.5% of horse serum, 1% of L-glutamine and 1% of penicillin and streptomycin.
For the implantations, the abdomens of the mice were disinfected with an iodinated povidone solution (Betadine®, ASTA Medica, Belgium). A 1 cm incision was made in the upper left quadrant of the abdomen. The end of the tail of the pancreas was seized and the pancreas and also the spleen were gently externalized in a lateral direction so as to be fully exposed. The needle was inserted into the tail of the pancreas and positioned just in the region of the head of the pancreas. 2×10^6 Mia PaCa 2-Luc cells in 50 μl of PBS were slowly injected using a 27-caliber needle. The spleen was then put back into the appropriate position in the abdomen and the skin and the peritoneum were sutured with a 5.0-diameter resorbable thread. […]
The evolution of the tumor volume was monitored by echography. […]

| Structure (SMILES) | visible side effects ([1]; 4 mg/kg intravenous once a week for 5 weeks) | evolution of the tumor volume ([1]; 4 mg/kg intravenous once a week for 5 weeks (D15-D43), echography for 50 days, FIG. 4 panel C) | evolution of the tumor volume ([2]; 2 mg/kg intravenous) | evolution of the tumor volume ([2]; 4 mg/kg intravenous) | evolution of the tumor volume (antitumor activity versus control animals) ([1]; MMAE alone 0.3 mg/kg (FIG. 4 legend: 0.5 mg/kg) intravenous once a week for 5 weeks, FIG. 4 panel B) | evolution of the tumor volume ([2]; 0.3 mg/kg intravenous) |
| --- | --- | --- | --- | --- | --- | --- |
| CC[C@@H](C)[C@H]([C@H](CC(=O)N1CCC[C@@H]1[C@@H](OC)[C@H](C)C(=O)N[C@@H](C)[C@H](O)c1ccccc1)OC)N(C)C(=O)[C@H](NC(=O)[C@@H](C(C)C)N(C)C(=O)OC(Cc1cn(CCOCCOCCOCCOCCOCCOCCOCCOCCOCCOCCNC(=O)CCCCCN2C(=O)C=CC2=O)nn1)c1ccc(O[C@@H]2OC(C(=O)O)[C@@H](O)[C@H](O)C2O)c([N+](=O)[O-])c1)C(C)C (stereo partly drawn) [conjugate of formula (III)] | without visible side effects | total and long-lasting regression of the tumor | the progression of the tumor volume is slower than with the control or the non-functionalized MMAE | total absence of tumor growth |  |  |
| CC[C@H](C)[C@@H]([C@@H](CC(=O)N1CCC[C@H]1[C@H](OC)[C@@H](C)C(=O)N[C@H](C)[C@@H](O)c1ccccc1)OC)N(C)C(=O)[C@@H](NC(=O)[C@@H](NC)C(C)C)C(C)C [MMAE, monomethyl auristatin E, reference compound] (H-[NMeV]V[Dil][Dolaproine]-X1) |  |  |  |  | only a very modest antitumor activity | significant increase in the tumor volume is observed starting from day 35 |
